The record followed here is patent US11820787B2, “Benfotiamine derivatives in the treatment of alzheimer's disease” (SHANGHAI RAISING PHARMACEUTICAL CO., LTD., priority 2019, dated 2023).

One experiment relates to Aβ40. The experiment can be described thus: Aβ40 content in culture supernatant of HEK293APP/sw overexpression cells (ELISA, adjusted to total protein). Format: cell-based. The following applies: for Aβ40 content: secreted by APP/293 (HEK293APP/sw) cells, 400 μM, treated for 24 h, blank control 127.81. Here is the method:
(§1) (1) BCA protein concentration assay kit is purchased from Beyotime, Aβ40 and AB42 test kits are purchased from Wako Company. Except the fetal bovine serum (FBS) is purchased from Shanghai Pulong Biotechnology Research and Development Co. Ltd., the other related reagents are purchased from Gibico Company.
(§2) (2) HEK293APP/sw overexpression cell culture: cells are cultured in 48 microwell plate with DMEM culture solution (including 10% FBS, 100 μg/mL G418 (Geneticin) and penicillin and streptomycin), and a 4 mM stock in DMEM is diluted with DMEM to 400 μM and added to cell culture medium by 500 μL/well at 70% cell density and treated for 24 h.
(§3) (3) After the supernatant of culture solution is added to the BCA reagent at room temperature for 30 minutes, the absorption value of each well is measured at the OD 570 nm by the microplate reader and the total protein concentration is calculated according to the protein standard curve. Meanwhile, the concentration of Aβ40 and Aβ42 in the supernatant of culture solution is measured. Briefly, the supernatant is added to the 96 microwell plate coated by primary antibodies and incubated at 4° C. for overnight. Then the solution in the 96 microwell plate is removed and washed, and HRP (horseradish oxide enzyme) marked antibody is added to the solution and incubated at 4° C. for 2 hours. The antibody is removed and the plate is washed. After TMB substrate is added to each well at room temperature for 30 minutes, and the stop buffer is added to each well. The absorption value of each well is measured at the OD 450 nm by the microplate reader and the concentrations of Aβ40 and Aβ42 are calculated according to the standard curves of Aβ40 and Aβ42 respectively, and the final concentration is obtained by adjusting the concentrations of Aβ40 and Aβ42 according to the total protein concentration.

Another experiment deals with Aβ42. The experiment can be described thus: Aβ42 content in culture supernatant of HEK293APP/sw overexpression cells (ELISA, adjusted to total protein). Conditions: for Aβ42 content: secreted by APP/293 (HEK293APP/sw) cells, 400 μM, treated for 24 h, blank control 11.08. Format: cell-based. How it is done: as §1, §2, §3

In the case of `C/C(=C(\CCOP(=O)(O)O)SC(=O)c1ccccc1)N(C=O)Cc1cnc(C)nc1N` [Comparative Example 2, S-[2-[[(4-amino-2-methyl-5-pyrimidinyl)methyl]formylamino]-1-[2-(phosphonooxy)ethyl]-1-propenyl]ester, reference compound], in the experiment on Aβ40 (APP/293 cells, in words), the “effect on the generation of Aβ40 peptides compared with blank control” value was “good effect on reducing the generation”. In addition, the Aβ40 content with Aβ40 turned out to be 53.77 pmol/L. For the same compound, the “effect on the generation of Aβ42 peptides compared with blank control” value with Aβ42 (APP/293 cells, in words) is given as “good effect on reducing the generation”. The compound further had an Aβ42 content in the experiment on Aβ42 of 5.04 pmol/L.

As for `COc1cccc(C(=O)S/C(CCOP(=O)(O)O)=C(/C)N(C=O)Cc2cnc(C)nc2N)c1` [Example 1, (Z)-S-(2-(N-((4-amino-2-methylpyrimidin-5-yl)methyl)formamido)-5-(phosphonooxy)pent-2-en-3-yl)3-methoxybenzothioate], the Aβ40 content in the experiment with Aβ40 is 135.09 pmol/L. The Aβ42 content in the experiment with Aβ42 amounted to 12.14 pmol/L.

As for `CCOc1ccc(C(=O)S/C(CCOP(=O)(O)O)=C(/C)N(C=O)Cc2cnc(C)nc2N)cc1` [Example 2, (Z)-S-(2-(N-((4-amino-2-methylpyrimidin-5-yl)methyl)formamido)-5-(phosphonooxy)pent-2-en-3-yl)4-ethoxybenzothioate], in the experiment on Aβ40, the Aβ40 content is recorded as 93.07 pmol/L. The compound further showed an Aβ42 content in the experiment on Aβ42 of 7.19 pmol/L.

In the experiment with Aβ40, `C/C(=C(\CCOP(=O)(O)O)SC(=O)c1ccc(O)cc1)N(C=O)Cc1cnc(C)nc1N` [Example 3, (Z)-S-(2-(N-((4-amino-2-methylpyrimidin-5-yl)methyl)formamido)-5-(phosphonooxy)pent-2-en-3-yl)4-hydroxybenzothioate] showed an Aβ40 content of 121.48 pmol/L. The same compound yielded an Aβ42 content in the experiment with Aβ42 of 10.79 pmol/L.

`C/C(=C(\CCOP(=O)(O)O)SC(=O)c1c(F)cccc1F)N(C=O)Cc1cnc(C)nc1N` [Example 4, (Z)-S-(2-(N-((4-amino-2-methylpyrimidin-5-yl)methyl)formamido)-5-(phosphonooxy)pent-2-en-3-yl)2,6-difluorobenzothioate] returned an Aβ40 content in the experiment on Aβ40 of 133.25 pmol/L. In the experiment on Aβ42, the Aβ42 content is reported as 8.86 pmol/L.

In the experiment with Aβ40, `C/C(=C(\CCOP(=O)(O)O)SC(=O)c1cccc(Br)c1)N(C=O)Cc1cnc(C)nc1N` [Example 5, (Z)-S-(2-(N-((4-amino-2-methylpyrimidin-5-yl)methyl)formamido)-5-(phosphonooxy)pent-2-en-3-yl)3-bromobenzothioate] showed an Aβ40 content of 25.65 pmol/L. Further, the Aβ42 content in the experiment on Aβ42 is listed as 6.77 pmol/L.

`C/C(=C(\CCOP(=O)(O)O)SC(=O)c1cccc([N+](=O)[O-])c1)N(C=O)Cc1cnc(C)nc1N` [Example 6, (Z)-S-(2-(N-((4-amino-2-methylpyrimidin-5-yl)methyl)formamido)-5-(phosphonooxy)pent-2-en-3-yl)3-nitrobenzothioate] had an Aβ40 content with Aβ40 of 81.05 pmol/L. The same compound displayed an Aβ42 content in the experiment with Aβ42 of 3.31 pmol/L.

As to `C/C(=C(\CCOP(=O)(O)O)SC(=O)c1ccc(F)cc1)N(C=O)Cc1cnc(C)nc1N` [Example 7, (Z)-S-(2-(N-((4-amino-2-methylpyrimidin-5-yl)methyl)formamido)-5-(phosphonooxy)pent-2-en-3-yl)4-fluorobenzothioate], the Aβ40 content in the experiment on Aβ40 was 152.06 pmol/L. In the experiment on Aβ42, this compound yielded an Aβ42 content of 13.08 pmol/L.

Turning to `C/C(=C(\CCOP(=O)(O)O)SC(=O)c1cccc(F)c1)N(C=O)Cc1cnc(C)nc1N` [Example 8, (Z)-S-(2-(N-((4-amino-2-methylpyrimidin-5-yl)methyl)formamido)-5-(phosphonooxy)pent-2-en-3-yl)3-fluorobenzothioate], the Aβ40 content in the experiment with Aβ40 is listed as 87.33 pmol/L. Moreover, in the experiment with Aβ42, the Aβ42 content is 8.35 pmol/L.

The compound `C/C(=C(\CCOP(=O)(O)O)SC(=O)c1ccccc1F)N(C=O)Cc1cnc(C)nc1N` [Example 9, (Z)-S-(2-(N-((4-amino-2-methylpyrimidin-5-yl)methyl)formamido)-5-(phosphonooxy)pent-2-en-3-yl)2-fluorobenzothioate] registered an Aβ40 content in the experiment with Aβ40 of 15.00 pmol/L.

In the case of `C/C(=C(\CCOP(=O)(O)O)SC(=O)c1ccccc1C)N(C=O)Cc1cnc(C)nc1N` [Example 10, (Z)-S-(2-(N-((4-amino-2-methylpyrimidin-5-yl)methyl)formamido)-5-(phosphonooxy)pent-2-en-3-yl)2-methylbenzothioate], the Aβ40 content in the experiment on Aβ40 came to 112.32 pmol/L. The Aβ42 content in the experiment on Aβ42 worked out at 9.78 pmol/L.

In the experiment on Aβ40, `C/C(=C(\CCOP(=O)(O)O)SC(=O)c1ccc([N+](=O)[O-])cc1)N(C=O)Cc1cnc(C)nc1N` [Example 11, (Z)-S-(2-(N-((4-amino-2-methylpyrimidin-5-yl)methyl)formamido)-5-(phosphonooxy)pent-2-en-3-yl)4-nitrobenzothioate] had an Aβ40 content of 60.98 pmol/L. The compound also gave an Aβ42 content in the experiment with Aβ42 of 5.21 pmol/L.

In the case of `COc1ccc(C(=O)S/C(CCOP(=O)(O)O)=C(/C)N(C=O)Cc2cnc(C)nc2N)cc1` [Example 12, (Z)-S-(2-(N-((4-amino-2-methylpyrimidin-5-yl)methyl)formamido)-5-(phosphonooxy)pent-2-en-3-yl)4-methoxybenzothioate], the Aβ40 content with Aβ40 came out at 41.60 pmol/L. The compound also showed an Aβ42 content with Aβ42 of 3.92 pmol/L.

The compound `C/C(=C(\CCOP(=O)(O)O)SC(=O)c1cccc(Cl)c1)N(C=O)Cc1cnc(C)nc1N` [Example 13, (Z)-S-(2-(N-((4-amino-2-methylpyrimidin-5-yl)methyl)formamido)-5-(phosphonooxy)pent-2-en-3-yl)3-chlorobenzothioate] gave an Aβ40 content in the experiment on Aβ40 of 69.35 pmol/L. The Aβ42 content with Aβ42 was 6.37 pmol/L.

In the experiment on Aβ40, `C/C(=C(\CCOP(=O)(O)O)SC(=O)c1cccc(C)c1)N(C=O)Cc1cnc(C)nc1N` [Example 14, (Z)-S-(2-(N-((4-amino-2-methylpyrimidin-5-yl)methyl)formamido)-5-(phosphonooxy)pent-2-en-3-yl)3-methylbenzothioate] returned an Aβ40 content of 97.97 pmol/L. Also, the Aβ42 content in the experiment with Aβ42 is 6.41 pmol/L.

`C/C(=C(\CCOP(=O)(O)O)SC(=O)c1ccc(Cl)cc1)N(C=O)Cc1cnc(C)nc1N` [Example 15, (Z)-S-(2-(N-((4-amino-2-methylpyrimidin-5-yl)methyl)formamido)-5-(phosphonooxy)pent-2-en-3-yl)4-chlorobenzothioate] returned an Aβ40 content in the experiment with Aβ40 of 60.27 pmol/L. The compound also registered an Aβ42 content in the experiment on Aβ42 of 7.16 pmol/L.

In the experiment with Aβ40, `CCOc1ccccc1C(=O)S/C(CCOP(=O)(O)O)=C(/C)N(C=O)Cc1cnc(C)nc1N` [Example 16] showed an Aβ40 content of 42.76 pmol/L. The compound further displayed an Aβ42 content in the experiment with Aβ42 of 5.93 pmol/L.

Consider `C/C(=C(\CCOP(=O)(O)O)SC(=O)c1ccc(Br)cc1)N(C=O)Cc1cnc(C)nc1N` [Example 17, (Z)-S-(2-(N-((4-amino-2-methylpyrimidin-5-yl)methyl)formamido)-5-(phosphonooxy)pent-2-en-3-yl)4-bromobenzothioate], for which the Aβ40 content with Aβ40 was determined as 112.53 pmol/L. The Aβ42 content with Aβ42 was 8.89 pmol/L.

`C=Cc1cccc(C(=O)S/C(CCOP(=O)(O)O)=C(/C)N(C=O)Cc2cnc(C)nc2N)c1` [Example 20, (Z)-S-(2-(N-((4-amino-2-methylpyrimidin-5-yl)methyl)formamido)-5-(phosphonooxy)pent-2-en-3-yl)3-vinylbenzothioate] returned an Aβ40 content in the experiment with Aβ40 of 117.16 pmol/L. In addition, the Aβ42 content in the experiment with Aβ42 is 10.33 pmol/L.

Consider `C=Cc1ccc(C(=O)S/C(CCOP(=O)(O)O)=C(/C)N(C=O)Cc2cnc(C)nc2N)cc1` [Example 21, (Z)-S-(2-(N-((4-amino-2-methylpyrimidin-5-yl)methyl)formamido)-5-(phosphonooxy)pent-2-en-3-yl)4-vinylbenzothioate], for which the Aβ40 content in the experiment with Aβ40 turned out to be 127.41 pmol/L. In the experiment on Aβ42, this compound had an Aβ42 content of 11.24 pmol/L.

Turning to `C/C(=C(\CCOP(=O)(O)O)SC(=O)c1ccccc1[N+](=O)[O-])N(C=O)Cc1cnc(C)nc1N` [Example 22, (Z)-S-(2-(N-((4-amino-2-methylpyrimidin-5-yl)methyl)formamido)-5-(phosphonooxy)pent-2-en-3-yl)2-nitrobenzothioate], in the experiment with Aβ40, the Aβ40 content amounted to 127.81 pmol/L. Further, the Aβ42 content in the experiment with Aβ42 was found to be 11.31 pmol/L.

Turning to `C/C(=C(\CCOP(=O)(O)O)SC(=O)c1c(C)cccc1C)N(C=O)Cc1cnc(C)nc1N` [Example 23, (Z)-S-(2-(N-((4-amino-2-methylpyrimidin-5-yl)methyl)formamido)-5-(phosphonooxy)pent-2-en-3-yl)2,6-dimethylbenzothioate], the Aβ40 content with Aβ40 came out at 143.18 pmol/L. Moreover, the Aβ42 content with Aβ42 amounted to 12.64 pmol/L.

In the case of “(Z)-S-(2-(N-((4-amino-2-methylpyrimidin-5-yl)methyl)formamido)-5-(phosphonooxy)pent-2-en-3-yl)2-bromobenzothioate [Example 18]”, in the experiment with Aβ40, the Aβ40 content was 21.19 pmol/L. This compound displayed an Aβ42 content with Aβ42 of 2.60 pmol/L.
